Measurements as given in ChEMBL document CHEMBL3792354, “Design, synthesis and evaluation of novel ferulic acid-memoquin hybrids as potential multifunctional agents for the treatment of Alzheimer's disease” (Bioorg Med Chem Lett, 2016).

Key:
[1] = in vitro; details: PAMPA
Description: Permeability of the compound at 100 ug/ml by PAMPA-BBB assay

[2] = molecular target: Acetylcholinesterase (Electrophorus electricus, UniProt O42275); assay: Inhibition of Electrophorus electricus AChE pre-incubated for 15 mins before acetylthiocholine chloride substrate addition by Ellman assay
Chain of Acetylcholinesterase (O42275 whole entry): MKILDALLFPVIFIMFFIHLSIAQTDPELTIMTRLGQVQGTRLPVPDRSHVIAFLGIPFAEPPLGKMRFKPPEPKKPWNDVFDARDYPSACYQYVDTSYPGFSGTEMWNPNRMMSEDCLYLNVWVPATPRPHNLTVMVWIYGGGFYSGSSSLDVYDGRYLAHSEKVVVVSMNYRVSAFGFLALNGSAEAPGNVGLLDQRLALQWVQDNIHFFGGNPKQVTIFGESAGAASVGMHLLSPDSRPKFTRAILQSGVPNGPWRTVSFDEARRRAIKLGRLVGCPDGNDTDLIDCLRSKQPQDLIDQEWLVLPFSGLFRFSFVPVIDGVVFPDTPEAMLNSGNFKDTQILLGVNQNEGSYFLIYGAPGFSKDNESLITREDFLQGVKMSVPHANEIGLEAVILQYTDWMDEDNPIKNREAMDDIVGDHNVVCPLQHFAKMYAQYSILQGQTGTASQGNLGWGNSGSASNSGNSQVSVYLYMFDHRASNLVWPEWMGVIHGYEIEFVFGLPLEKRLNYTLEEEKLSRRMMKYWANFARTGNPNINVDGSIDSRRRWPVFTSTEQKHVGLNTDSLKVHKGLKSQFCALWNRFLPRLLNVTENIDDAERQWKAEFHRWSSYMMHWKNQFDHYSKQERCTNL

[3] = molecular target: Cholinesterase (Equus caballus) (UniProt P81908); assay: Inhibition of equine serum BuChE at 50 uM pre-incubated for 15 mins before butylthiocholine chloride substrate addition by Ellman assay
Chain of Cholinesterase (Equus caballus) (P81908 whole entry): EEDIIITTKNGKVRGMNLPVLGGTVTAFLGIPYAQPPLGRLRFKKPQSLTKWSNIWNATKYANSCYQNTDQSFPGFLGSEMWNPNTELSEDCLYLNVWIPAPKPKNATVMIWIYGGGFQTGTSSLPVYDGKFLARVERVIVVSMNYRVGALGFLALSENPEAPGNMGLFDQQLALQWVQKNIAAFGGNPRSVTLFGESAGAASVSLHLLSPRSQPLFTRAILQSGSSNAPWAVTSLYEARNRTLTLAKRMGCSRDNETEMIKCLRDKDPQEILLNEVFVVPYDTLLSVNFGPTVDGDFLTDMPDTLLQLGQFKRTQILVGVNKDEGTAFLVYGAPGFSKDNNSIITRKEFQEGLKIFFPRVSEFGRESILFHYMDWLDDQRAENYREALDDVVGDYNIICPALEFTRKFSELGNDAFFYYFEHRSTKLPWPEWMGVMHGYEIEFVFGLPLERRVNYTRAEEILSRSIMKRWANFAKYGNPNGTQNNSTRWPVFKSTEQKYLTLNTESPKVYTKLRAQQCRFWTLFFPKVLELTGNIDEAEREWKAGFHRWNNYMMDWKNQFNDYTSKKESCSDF

[4] = Antioxidant activity assessed as AAPH radical scavenging activity by measuring Trolox equivalent per microM of test compound measured every minute for 90 mins by ORAC-FL assay; type: physicochemical; details: 1.5 h
[5] = molecular target: Amyloid-beta precursor protein (Homo sapiens) (UniProt P05067); assay: Inhibition of self-induced amyloid beta (1 to 42) aggregation (unknown origin) at 25 uM by Thioflavin T-based fluorometric assay
Chain of Amyloid-beta precursor protein (Homo sapiens) (P05067 whole entry): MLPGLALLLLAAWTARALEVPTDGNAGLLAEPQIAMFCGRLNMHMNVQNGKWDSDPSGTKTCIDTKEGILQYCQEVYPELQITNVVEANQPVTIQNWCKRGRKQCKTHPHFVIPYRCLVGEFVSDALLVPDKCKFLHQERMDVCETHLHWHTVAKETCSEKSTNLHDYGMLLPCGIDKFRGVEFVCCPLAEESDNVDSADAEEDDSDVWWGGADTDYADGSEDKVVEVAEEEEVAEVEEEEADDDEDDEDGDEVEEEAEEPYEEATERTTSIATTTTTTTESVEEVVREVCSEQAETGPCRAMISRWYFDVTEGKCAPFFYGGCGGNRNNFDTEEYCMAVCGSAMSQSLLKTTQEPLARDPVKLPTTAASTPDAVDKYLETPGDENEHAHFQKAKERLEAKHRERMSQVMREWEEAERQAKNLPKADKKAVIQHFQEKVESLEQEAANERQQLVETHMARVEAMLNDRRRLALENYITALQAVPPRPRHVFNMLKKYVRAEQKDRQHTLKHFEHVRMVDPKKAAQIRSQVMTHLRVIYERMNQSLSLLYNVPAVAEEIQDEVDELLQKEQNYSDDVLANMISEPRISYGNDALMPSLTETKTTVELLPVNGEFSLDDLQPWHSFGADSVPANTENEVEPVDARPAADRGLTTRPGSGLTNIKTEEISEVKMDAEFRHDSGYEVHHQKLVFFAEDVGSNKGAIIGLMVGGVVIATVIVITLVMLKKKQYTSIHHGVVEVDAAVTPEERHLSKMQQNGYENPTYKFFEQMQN

[6] = tested on: SH-SY5Y; assay: Neuroprotective activity against hydrogen peroxide-induced cell injury in human SH-SY5Y cells assessed as cell viability incubated for 3 hrs after H2O2 exposure for 24 hrs by MTT assay; type: functional, cell-based
[7] = molecular target: Amyloid-beta precursor protein (Homo sapiens) (UniProt P05067); assay: Induction of disaggregation of self-induced amyloid beta (1 to 42) fibril formation (unknown origin) at 25 uM incubated for 24 hrs by Thioflavin T-based fluorometric assay
[8] = tested on: SH-SY5Y; assay: Neuroprotective activity against hydrogen peroxide-induced cell injury in human SH-SY5Y cells assessed as cell viability at 10 uM incubated for 3 hrs after H2O2 exposure for 24 hrs by MTT assay; type: functional; details: read-out: Activity
[9] = molecular target: Amyloid-beta precursor protein (Homo sapiens) (UniProt P05067); assay: Inhibition of self-induced amyloid beta (1 to 42) aggregation (unknown origin) at 10 uM by Thioflavin T-based fluorometric assay
[10] = molecular target: Amyloid-beta precursor protein (Homo sapiens) (UniProt P05067); assay: Inhibition of self-induced amyloid beta (1 to 42) aggregation (unknown origin) by Thioflavin T-based fluorometric assay
[11] = molecular target: Amyloid-beta precursor protein (Homo sapiens) (UniProt P05067); assay: Inhibition of self-induced amyloid beta (1 to 42) aggregation (unknown origin) at 50 uM by Thioflavin T-based fluorometric assay
[12] = Toxicity in human SH-SY5Y cells assessed as cell viability at 10 uM incubated for 24 hrs by MTT assay; type: cell-based; details: read-out: Activity
[13] = tested on: SH-SY5Y; assay: Neuroprotective activity against hydrogen peroxide-induced cell injury in human SH-SY5Y cells assessed as cell viability at 1 uM incubated for 3 hrs after H2O2 exposure for 24 hrs by MTT assay; type: functional; details: read-out: Activity

For `CN1C(C(=O)Nc2ccccn2)=C(O)c2ccccc2S1(=O)=O` [PIROXICAM], the Papp at 100 ug/ml [1] was 0.63 ×10⁻⁶ cm/s.

With `CC(=O)[C@H]1CC[C@H]2[C@@H]3CCC4=CC(=O)CC[C@]4(C)[C@H]3CC[C@]12C` [PROGESTERONE] the Papp at 100 ug/ml [1] was 15.9 ×10⁻⁶ cm/s.

`COc1cc(/C=C/C(=O)NCCCCCCN(C)Cc2ccccc2)ccc1O` showed an IC50 [2] of 15.1 µM, an inhibition [3] of under 5% and an Activity [4] of 1.2 equiv. For the same compound, the inhibition [5] was 31.2%.

`COc1cc(/C=C/C(=O)NCCCN(C)Cc2ccccc2)ccc1O` gave an IC50 [2] of 34.7 µM, an inhibition [3] of under 5% and an Activity [4] of 1.2 equiv. For the same compound, the inhibition [5] was 39.1%.

In the case of `CCN(CCCCCCNC(=O)/C=C/c1ccc(O)c(OC)c1)Cc1ccccc1`, the IC50 [2] is reported as 8.2 µM, the inhibition [3] is reported as 17.2% and the Activity [4] is reported as 1.1 equiv. For the same compound, the inhibition [5] was 37.4%.

Compound `COc1cc(/C=C/C(=O)O)ccc1O` [FERULATE] has an IC50 [2] of over 100 µM, an inhibition [3] of under 5% and an Activity [4] of 1.1 equiv. The inhibition [5] was 28.3%.

In the case of `CCN(CCCCCCNC(=O)/C=C/c1ccc(O)c(OC)c1)Cc1ccccc1OC`, the Activity [6] is reported as “Dose-dependent effect”, the Activity [7] is reported as 45.5% and the IC50 [2] is reported as 3.2 µM. The viability at 10 µM [8] was 88.3%, the inhibition [9] was 26.8% and the inhibition [10] was “Dose-dependent effect”. It also gave an inhibition [11] of 49.3%, a viability at 24 h, 10 µM [12] of 98.3% and a Papp at 100 ug/ml [1] of 5.53 ×10⁻⁶ cm/s. It also gave a viability at 1 µM [13] of 68.6%, an inhibition [3] of 36.2% and an Activity [4] of 1.2 equiv. For the same compound, the inhibition [5] was 38.1%.

`COc1cc(/C=C/C(=O)CC(=O)/C=C/c2ccc(O)c(OC)c2)ccc1O` gave an Activity [7] of 57.6%.

Compound `COc1cc(/C=C/C(=O)NCCCCN(C)Cc2ccccc2)ccc1O` has an IC50 [2] of 29.6 µM, an inhibition [3] of under 5% and an Activity [4] of 1.3 equiv. It also gave an inhibition [5] of 31.6%.

`CCN(CCCNC(=O)/C=C/c1ccc(O)c(OC)c1)Cc1ccccc1` showed an IC50 [2] of 31.4 µM, an inhibition [3] of under 5% and an Activity [4] of 0.9 equiv. The inhibition [5] was 33.3%.

Work on `COc1cc(/C=C/C(=O)NCCCCN(C)Cc2ccccc2OC)ccc1O` yielded an IC50 [2] of 18 µM, an inhibition [3] of 34.6% and an Activity [4] of 1.2 equiv. The inhibition [5] was 32.5%.

Work on `CCN(CCCCNC(=O)/C=C/c1ccc(O)c(OC)c1)Cc1ccccc1` yielded an IC50 [2] of 16.5 µM, an inhibition [3] of under 5% and an Activity [4] of 1.1 equiv. For the same compound, the inhibition [5] was 33.8%.

`COc1cc(/C=C/C(=O)NCCCCCCN(C)Cc2ccccc2OC)ccc1O` gave an IC50 [2] of 8.5 µM, an inhibition [3] of 27.6% and an Activity [4] of 1.3 equiv. The inhibition [5] was 36.6%.

With `CCn1cc(C(=O)O)c(=O)c2cc(F)c(N3CCNC(C)C3)c(F)c21` (stereo not drawn) [LOMEFLOXACIN] the Papp at 100 ug/ml [1] was 0.52 ×10⁻⁶ cm/s.

Work on `CCN(CCCCNC(=O)/C=C/c1ccc(O)c(OC)c1)Cc1ccccc1OC` yielded an IC50 [2] of 8.6 µM, an inhibition [3] of under 5% and an Activity [4] of 1.3 equiv. It also gave an inhibition [5] of 38.3%.

`CCN(CCCNC(=O)/C=C/c1ccc(O)c(OC)c1)Cc1ccccc1OC` gave an IC50 [2] of 15.9 µM, an inhibition [3] of 31.4% and an Activity [4] of 1.1 equiv. It also gave an inhibition [5] of 35.2%.

For `COc1cc(/C=C/C(=O)NCCCN(C)Cc2ccccc2OC)ccc1O`, the IC50 [2] was 25.1 µM, the inhibition [3] was 15.8% and the Activity [4] was 1.3 equiv. For the same compound, the inhibition [5] was 30.8%.

`CCN(CCCCCCNC1=CC(=O)C(NCCCCCCN(CC)Cc2ccccc2OC)=CC1=O)Cc1ccccc1OC` [MEMOQUIN] gave an IC50 [2] of 0.0067 µM, an inhibition [3] of 5.8% and an inhibition [5] of 72.7%.
